Results published in US10196393B2, “JAK inhibitors containing a 4-membered heterocyclic amide” (THERAVANCE BIOPHARMA R&D IP, LLC, priority 2017, dated 2019).

Tests used:
[1] = test system: IL-13 induced STAT6 phosphorylation in BEAS-2B human lung epithelial cells; assay: Cellular JAKI potency assay (AlphaScreen), BEAS-2B; type: cell-based; settings: BEAS-2B cells
Method: Assay 2: Cellular JAKI Potency Assay
The AlphaScreen JAKI cellular potency assay was carried out by measuring interleukin-13 (IL-13, R&D Systems) induced STAT6 phosphorylation in BEAS-2B human lung epithelial cells (ATCC). The anti-STAT6 antibody (Cell Signaling Technologies) was conjugated to AlphaScreen acceptor beads (Perkin Elmer), while the anti-pSTAT6 (pTyr641) antibody (Cell Signaling Technologies) was biotinylated using EZ-Link Sulfo-NHS-Biotin (Thermo Scientific).
BEAS-2B cells were grown at 37° C. in a 5% CO2 humidified incubator in 50% DMEM/50% F-12 medium (Life Technologies) supplemented with 10% FBS (Hyclone), 100 U/mL penicillin, 100 μg/mL streptomycin (Life Technologies), and 2 mM GlutaMAX (Life Technologies). On day 1 of the assay, cells were seeded at a 7,500 cells/well density in white poly-D-lysine-coated 384-well plates (Corning) with 25 μL medium, and were allowed to adhere overnight in the incubator. On day 2 of the assay, the medium was removed and replaced with 12 μL of assay buffer (Hank's Balanced Salt Solution/HBSS, 25 mM HEPES, and 1 mg/ml bovine serum albumin/BSA) containing dose-responses of test compounds. Compounds were serially diluted in DMSO and then diluted another 1000-fold in media to bring the final DMSO concentration to 0.1%. Cells were incubated with test compounds at 37° C. for 1 h, and followed by the addition of 12 μl of pre-warmed IL-13 (80 ng/mL in assay buffer) for stimulation. After incubating at 37° C. for 30 min, the assay buffer (containing compound and IL-13) was removed, and 10 μL of cell lysis buffer (25 mM HEPES, 0.1% SDS, 1% NP-40, 5 mM MgCl2, 1.3 mM EDTA, 1 mM EGTA, and supplement with Complete Ultra mini protease inhibitors and PhosSTOP from Roche Diagnostics). The plates were shaken at ambient temperature for 30 min before the addition of detection reagents. A mixture of biotin-anti-pSTAT6 and anti-STAT6 conjugated acceptor beads was added first and incubated at ambient temperature for 2 h, followed by the addition of streptavidin conjugated donor beads (Perkin Elmer). After a minimum of 2 h incubation, the assay plates were read on the EnVision plate reader. AlphaScreen luminescence signals were recorded and utilized to calculate the percent inhibition values based on DMSO and background controls.
For dose-response analysis, percent inhibition data were plotted vs. compound concentrations, and IC50 values were determined from a 4-parameter robust fit model with the Prism software. Results may also be expressed as the negative logarithm of the IC50 value, pIC50.
Test compounds having a lower IC50 value or higher pIC50 value in this assay show greater inhibition of IL-13 induced STAT6 phosphorylation.

[2] = test system: IL-13 induced pSTAT6 induction in lung tissue; assay: Murine model of IL-13 induced pSTAT6 induction in lung tissue; type: in vivo; settings: mouse lung, 1 mg/mL 50 μL oral aspiration, IL-13 challenge 4 h after dose, lungs at 5 hours
Excerpt: Assay 4: Murine (Mouse) Model of IL-13 Induced pSTAT6 Induction in Lung Tissue
Il-13 is an important cytokine underlying the pathophysiology of asthma (Kudlacz et al. Eur. J. Pharmacol, 2008, 582,154-161). IL-13 binds to cell surface receptors activating members of the Janus family of kinases (JAK) which then phosphorylate STAT6 and subsequently activates further transcription pathways. In the described model, a dose of IL-13 was delivered locally into the lungs of mice to induce the phosphorylation of STAT6 (pSTAT6) which is then measured as the endpoint.
Adult balb/c mice from Harlan were used in the assay. On the day of study, animals were lightly anesthetized with isoflurane and administered either vehicle or test compound (1 mg/mL, 50 μL total volume over several breaths) via oral aspiration. Animals were placed in lateral recumbency post dose and monitored for full recovery from anesthesia before being returned to their home cage. Four hours later, animals were once again briefly anesthetized and challenged with either vehicle or IL-13 (0.03 μg total dose delivered, 50 μL total volume) via oral aspiration before being monitored for recovery from anesthesia and returned to their home cage. One hour after vehicle or IL-13 administration, lungs were collected for both pSTAT6 detection using an anti-pSTAT6 ELISA (rabbit mAb capture/coating antibody; mouse mAb detection/report antibody: anti-pSTAT6-pY641; secondary antibody: anti-mouse IgG-HRP) and analyzed for total drug concentration as described above in Assay 3.
Selected compounds of the invention were tested in the assay. Activity in the model is evidenced by a decrease in the level of pSTAT6 present in the lungs of treated animals at 5 hours compared to the vehicle treated, IL-13 challenged control animals. The difference between the control animals which were vehicle-treated, IL-13 challenged and the control animals which were vehicle-treated, vehicle challenged dictated the 0% and 100% inhibitory effect, respectively, in any given experiment.

JAK1 = JAK1 (Homo sapiens (Human), UniProt P23458); assay: Biochemical JAK kinase assay (LanthaScreen), JAK1; settings: converted from pIC50 with Cheng-Prusoff equation
JAK1, sequence (P23458 whole entry): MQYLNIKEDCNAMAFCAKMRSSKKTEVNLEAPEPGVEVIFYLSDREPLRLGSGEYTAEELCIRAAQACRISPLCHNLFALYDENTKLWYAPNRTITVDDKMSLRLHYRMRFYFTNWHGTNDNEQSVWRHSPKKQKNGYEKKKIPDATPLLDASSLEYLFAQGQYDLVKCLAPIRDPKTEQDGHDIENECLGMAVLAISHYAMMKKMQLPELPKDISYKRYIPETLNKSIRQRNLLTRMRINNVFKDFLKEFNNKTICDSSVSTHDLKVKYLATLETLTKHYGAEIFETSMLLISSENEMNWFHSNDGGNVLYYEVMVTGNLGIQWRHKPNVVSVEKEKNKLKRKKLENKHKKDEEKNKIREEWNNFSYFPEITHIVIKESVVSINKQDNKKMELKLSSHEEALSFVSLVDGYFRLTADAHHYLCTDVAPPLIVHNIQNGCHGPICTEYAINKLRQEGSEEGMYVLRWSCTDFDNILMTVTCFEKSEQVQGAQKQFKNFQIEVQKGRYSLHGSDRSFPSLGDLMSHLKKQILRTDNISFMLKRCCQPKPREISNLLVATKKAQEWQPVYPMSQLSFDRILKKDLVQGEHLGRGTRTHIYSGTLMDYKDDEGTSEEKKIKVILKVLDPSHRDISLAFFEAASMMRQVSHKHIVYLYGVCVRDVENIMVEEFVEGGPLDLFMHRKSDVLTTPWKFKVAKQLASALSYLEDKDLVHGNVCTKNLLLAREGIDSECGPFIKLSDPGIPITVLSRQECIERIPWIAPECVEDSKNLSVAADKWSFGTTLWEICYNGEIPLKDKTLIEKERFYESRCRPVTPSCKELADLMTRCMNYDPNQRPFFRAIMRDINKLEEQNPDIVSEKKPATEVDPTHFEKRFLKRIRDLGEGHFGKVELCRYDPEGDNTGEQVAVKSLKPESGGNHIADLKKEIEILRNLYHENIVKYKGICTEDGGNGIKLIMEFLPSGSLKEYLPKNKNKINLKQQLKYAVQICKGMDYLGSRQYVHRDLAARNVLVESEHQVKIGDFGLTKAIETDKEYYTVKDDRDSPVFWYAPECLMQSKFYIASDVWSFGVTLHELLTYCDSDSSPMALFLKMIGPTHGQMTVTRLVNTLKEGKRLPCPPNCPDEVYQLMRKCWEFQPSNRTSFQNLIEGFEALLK
Method: (§1) Assay 1: Biochemical JAK Kinase Assays
(§2) A panel of four LanthaScreen JAK biochemical assays (JAK1, 2, 3 and Tyk2) were carried in a common kinase reaction buffer (50 mM HEPES, pH 7.5, 0.01% Brij-35, 10 mM MgCl2, and 1 mM EGTA). Recombinant GST-tagged JAK enzymes and a GFP-tagged STAT1 peptide substrate were obtained from Life Technologies.
(§3) Serially diluted compounds were pre-incubated with each of the four JAK enzymes and the substrate in white 384-well microplates (Corning) at ambient temperature for 1 h. ATP was subsequently added to initiate the kinase reactions in 10 μL total volume, with 1% DMSO. […] The plates were allowed to incubate at ambient temperature for 1 h before being read on the EnVision reader (Perkin Elmer).
(§4) For dose-response analysis, percent inhibition data were plotted vs. compound concentrations, and IC50 values were determined from a 4-parameter robust fit model with the Prism software (GraphPad Software). Results were expressed as pIC50 (negative logarithm of IC50) and subsequently converted to pKi (negative logarithm of dissociation constant, Ki) using the Cheng-Prusoff equation.

JAK3 = JAK3 (Homo sapiens (Human), UniProt P52333); assay: Biochemical JAK kinase assay (LanthaScreen), JAK3; settings: converted from pIC50 with Cheng-Prusoff equation
JAK3, sequence (P52333 whole entry): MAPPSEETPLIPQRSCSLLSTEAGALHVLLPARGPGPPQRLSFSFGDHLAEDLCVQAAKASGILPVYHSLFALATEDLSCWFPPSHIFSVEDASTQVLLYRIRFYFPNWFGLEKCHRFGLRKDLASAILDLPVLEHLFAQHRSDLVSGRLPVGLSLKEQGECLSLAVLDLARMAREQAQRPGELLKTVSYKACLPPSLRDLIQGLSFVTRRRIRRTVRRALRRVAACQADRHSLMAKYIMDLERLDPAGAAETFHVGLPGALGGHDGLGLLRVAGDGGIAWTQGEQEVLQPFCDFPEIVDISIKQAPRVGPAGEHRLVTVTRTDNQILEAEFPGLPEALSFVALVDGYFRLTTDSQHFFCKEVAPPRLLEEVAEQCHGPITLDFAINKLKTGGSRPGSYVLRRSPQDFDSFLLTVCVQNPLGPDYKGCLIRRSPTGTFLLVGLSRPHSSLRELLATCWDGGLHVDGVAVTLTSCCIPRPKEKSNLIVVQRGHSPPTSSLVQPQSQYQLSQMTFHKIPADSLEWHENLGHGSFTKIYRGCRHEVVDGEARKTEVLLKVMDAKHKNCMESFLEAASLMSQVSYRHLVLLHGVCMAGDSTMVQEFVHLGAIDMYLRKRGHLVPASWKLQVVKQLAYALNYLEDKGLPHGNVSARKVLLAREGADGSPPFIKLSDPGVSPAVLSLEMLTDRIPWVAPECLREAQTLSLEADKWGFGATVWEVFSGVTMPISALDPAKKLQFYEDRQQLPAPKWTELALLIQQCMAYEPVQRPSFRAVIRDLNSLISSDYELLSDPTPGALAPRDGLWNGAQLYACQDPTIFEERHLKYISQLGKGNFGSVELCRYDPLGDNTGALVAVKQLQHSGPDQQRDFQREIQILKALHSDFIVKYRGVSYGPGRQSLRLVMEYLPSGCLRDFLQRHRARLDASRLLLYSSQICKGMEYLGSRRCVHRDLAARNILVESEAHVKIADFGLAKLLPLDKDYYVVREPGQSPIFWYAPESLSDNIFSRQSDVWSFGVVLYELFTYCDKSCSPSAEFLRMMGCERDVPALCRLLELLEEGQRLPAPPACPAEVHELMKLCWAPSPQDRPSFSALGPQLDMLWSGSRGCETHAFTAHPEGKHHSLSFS
Method: as §1, §2, §3, §4

JAK2 = JAK2 (Homo sapiens (Human), UniProt O60674); assay: Biochemical JAK kinase assay (LanthaScreen), JAK2; settings: converted from pIC50 with Cheng-Prusoff equation
JAK2, sequence (O60674 whole entry): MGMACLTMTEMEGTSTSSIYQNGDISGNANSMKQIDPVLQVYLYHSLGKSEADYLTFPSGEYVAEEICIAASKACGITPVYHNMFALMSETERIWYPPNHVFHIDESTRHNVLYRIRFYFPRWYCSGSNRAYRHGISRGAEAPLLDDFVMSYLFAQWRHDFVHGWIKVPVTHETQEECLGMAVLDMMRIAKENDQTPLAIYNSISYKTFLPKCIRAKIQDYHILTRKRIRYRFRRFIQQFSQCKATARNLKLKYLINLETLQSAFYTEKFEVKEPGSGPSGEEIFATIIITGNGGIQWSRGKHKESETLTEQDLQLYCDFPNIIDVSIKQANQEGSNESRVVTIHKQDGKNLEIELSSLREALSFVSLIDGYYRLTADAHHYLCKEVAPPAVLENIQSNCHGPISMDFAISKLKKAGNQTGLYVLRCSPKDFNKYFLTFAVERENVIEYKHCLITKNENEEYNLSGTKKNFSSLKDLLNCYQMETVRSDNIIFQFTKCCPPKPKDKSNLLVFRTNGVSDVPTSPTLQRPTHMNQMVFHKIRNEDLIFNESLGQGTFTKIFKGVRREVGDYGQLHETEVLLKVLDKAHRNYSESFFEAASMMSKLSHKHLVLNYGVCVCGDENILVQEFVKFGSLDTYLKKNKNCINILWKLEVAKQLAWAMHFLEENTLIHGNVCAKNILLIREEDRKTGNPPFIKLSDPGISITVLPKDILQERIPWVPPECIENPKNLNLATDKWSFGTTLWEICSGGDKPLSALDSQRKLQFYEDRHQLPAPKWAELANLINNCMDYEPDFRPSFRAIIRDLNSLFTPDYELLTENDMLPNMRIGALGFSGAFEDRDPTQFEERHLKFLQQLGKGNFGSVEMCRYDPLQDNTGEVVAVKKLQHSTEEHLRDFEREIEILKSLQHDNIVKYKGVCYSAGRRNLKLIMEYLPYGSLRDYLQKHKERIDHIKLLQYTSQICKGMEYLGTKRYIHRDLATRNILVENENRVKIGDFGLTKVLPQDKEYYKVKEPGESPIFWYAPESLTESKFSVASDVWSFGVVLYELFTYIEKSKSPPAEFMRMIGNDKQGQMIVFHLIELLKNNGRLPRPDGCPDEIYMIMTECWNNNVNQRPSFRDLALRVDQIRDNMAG
Method: as §1, §2, §3, §4

Q: With CCc1cc(O)c(F)cc1-c1ccc2c(-c3nc4c([nH]3)CN(CC)C(C(=O)N3CC(N5CCCCC5)C3)C4)n[nH]c2c1 (racemic) [Example 8-4] as the molecule, how does the IC50 [1] read?
A: 10 nM

Q: What does the source list for CCCN1Cc2[nH]c(-c3n[nH]c4cc(-c5cc(F)c(O)cc5CC)ccc34)nc2C[C@H]1C(=O)N1CC(C)(N(C)C)C1 [Example 8, (S)-(3-(dimethylamino)-3-methylazetidin-1-yl)(2-(6-(2-ethyl-5-fluoro-4-hydroxyphenyl)-1H-indazol-3-yl)-5-propyl-4,5,6,7-tetrahydro-3H-imidazo[4,5-c]pyridin-6-yl)methanone]?
A: pSTAT6 inhibition Assay 4 [2]: B (B represents between 40% and 60% inhibition); IC50 ([1]; Homo sapiens): 8.5 nM

Q: Which Ki (JAK1) does the source give for CCc1cc(O)c(F)cc1-c1ccc2c(-c3nc4c([nH]3)CN(C)[C@H](C(=O)N3CC(N5CCCCC5)C3)C4)n[nH]c2c1 [Example 8-1] here?
A: 0.06 nM

Q: And the IC50 [1]?
A: 6.3 nM

Q: How did the Ki (JAK1) turn out when CCc1cc(O)c(F)cc1-c1ccc2c(-c3nc4c([nH]3)CN(C)[C@H](C(=O)N3CC(N(C)C)C3)C4)n[nH]c2c1 [Example 8-2] was run?
A: 0.06 nM

Q: What about the IC50 [1] of the same molecule?
A: 12.6 nM

Q: For CCCN1Cc2[nH]c(-c3n[nH]c4cc(-c5cc(F)c(O)cc5CC)ccc34)nc2C[C@H]1C(=O)N1CC(N2CCCCC2)C1 [Example 8-5], which Ki (JAK3) is on record?
A: 0.2 nM

Q: What about the IC50 [1] of the same molecule?
A: 25.1 nM

Q: CCc1cc(O)c(F)cc1-c1ccc2c(-c3nc4c([nH]3)CN(C(C)C)[C@H](C(=O)N3CC(N5CCCCC5)C3)C4)n[nH]c2c1 [Example 8-6] was tested. Which Ki (JAK1) did it give?
A: 0.06 nM

Q: What about the IC50 [1] of the same molecule?
A: 15.8 nM

Q: For CCc1cc(O)c(F)cc1-c1ccc2c(-c3nc4c([nH]3)CN(C(C)C)[C@H](C(=O)N3CC(N(C)C)C3)C4)n[nH]c2c1 [Example 8-7], which Ki (JAK3) is on record?
A: 0.2 nM

Q: And the “pSTAT6 inhibition Assay 4” value [2]?
A: B (B represents between 40% and 60% inhibition)

Q: And the Ki (JAK1)?
A: 0.06 nM

Q: What about the IC50 [1] of the same molecule?
A: 3.1 nM

Q: How did the Ki (JAK3) turn out when CCc1cc(O)c(F)cc1-c1ccc2c(-c3nc4c([nH]3)CN(CC)C(C(=O)N3CC(N(C)C)C3)C4)n[nH]c2c1 (stereo not drawn) [Example 8-8] was run?
A: 0.28 nM

Q: What about the IC50 [1] of the same molecule?
A: 5 nM

Q: How did the Ki (JAK3) turn out when CCc1cc(O)c(F)cc1-c1ccc2c(-c3nc4c([nH]3)CN(C)C(C(=O)N3CC(C)(N(C)C)C3)C4)n[nH]c2c1 (stereo not drawn) [Example 8-9] was run?
A: 0.16 nM

Q: And the Ki (JAK1)?
A: 0.05 nM

Q: And the IC50 ([1]; Homo sapiens)?
A: 7.1 nM

Q: With CCc1cc(O)c(F)cc1-c1ccc2c(-c3nc4c([nH]3)CN(CC)C(C(=O)N3CC(C)(N(C)C)C3)C4)n[nH]c2c1 (stereo not drawn) [Example 8-10] as the molecule, how does the IC50 ([1]; Homo sapiens) read?
A: 3.2 nM

Q: How did the IC50 ([1]; Homo sapiens) turn out when CCCN1Cc2[nH]c(-c3n[nH]c4cc(-c5cc(F)c(O)cc5CC)ccc34)nc2CC1C(=O)N1CC(C)(N(C)C)C1 (stereo not drawn) [Example 8-11] was run?
A: 6.3 nM

Q: With CCc1cc(O)c(F)cc1-c1ccc2c(-c3nc4c([nH]3)CN(C(C)C)C(C(=O)N3CC(C)(N(C)C)C3)C4)n[nH]c2c1 (stereo not drawn) [Example 8-12] as the molecule, how does the Ki (JAK1) read?
A: 0.06 nM

Q: And the IC50 ([1]; Homo sapiens)?
A: 4 nM

Q: For CCc1cc(O)c(F)cc1-c1ccc2c(-c3nc4c([nH]3)CN(CC)[C@H](C(=O)N3CC(N5CCCCC5)C3)C4)n[nH]c2c1 [Example 8-14, (S)-(5-ethyl-2-(6-(2-ethyl-5-fluoro-4-hydroxyphenyl)-1H-indazol-3-yl)-4,5,6,7-tetrahydro-3H-imidazo[4,5-c]pyridin-6-yl)(3-(piperidin-1-yl)azetidin-1-yl)methanone], which IC50 ([1]; Homo sapiens) is on record?
A: 12.6 nM

Q: For CCc1cc(O)c(F)cc1-c1ccc2c(-c3nc4c([nH]3)CN(CC)[C@@H](C(=O)N3CC(N5CCCCC5)C3)C4)n[nH]c2c1 [Example 8-15], which “pSTAT6 inhibition Assay 4” value [2] is on record?
A: C (C represents between 25% and 40% inhibition)

Q: What about the IC50 [1] of the same molecule?
A: 5.6 nM

Q: What about the Ki (JAK2) of the same molecule?
A: 0.03 nM

Q: Which “pSTAT6 inhibition Assay 4” value [2] does the source give for CCc1cc(O)c(F)cc1-c1ccc2c(-c3nc4c([nH]3)CN(C(C)C)C(C(=O)N3CC(C)(N(C)C)C3)C4)n[nH]c2c1 (stereo not drawn) [Example 8-16] here?
A: C (C represents between 25% and 40% inhibition)

Q: With CCc1cc(O)c(F)cc1-c1ccc2c(-c3nc4c([nH]3)CN(C(C)C)[C@H](C(=O)N3CC(C)(N(C)C)C3)C4)n[nH]c2c1 [Example 8-16] as the molecule, how does the IC50 ([1]; Homo sapiens) read?
A: 5 nM

Q: CCc1cc(O)c(F)cc1-c1ccc2c(-c3nc4c([nH]3)CN(C(C)C)[C@@H](C(=O)N3CC(N(C)C)C3)C4)n[nH]c2c1 [Example 8-17] was tested. Which Ki (JAK3) did it give?
A: 0.13 nM

Q: And the IC50 [1]?
A: 8 nM

Q: For CCc1cc(O)c(F)cc1-c1ccc2c(-c3nc4c([nH]3)CN(C(C)C)[C@@H](C(=O)N3CC(C)(N(C)C)C3)C4)n[nH]c2c1 [Example 8-18], which IC50 ([1]; Homo sapiens) is on record?
A: 4 nM

Q: For CCCN1Cc2[nH]c(-c3n[nH]c4cc(-c5cc(F)c(O)cc5CC)ccc34)nc2C[C@@H]1C(=O)N1CC(C)(N(C)C)C1 [Example 8-19], which IC50 ([1]; Homo sapiens) is on record?
A: 8 nM

Q: Which results are given for CCc1cc(O)c(F)cc1-c1ccc2c(-c3nc4c([nH]3)CN(CC)[C@@H](C(=O)N3CC(N(C)C)C3)C4)n[nH]c2c1 [Example 8-20]?
A: Ki (JAK3): 0.2 nM; IC50 [1]: 5 nM

Q: With CCc1cc(O)c(F)cc1-c1ccc2c(-c3nc4c([nH]3)CN(CC)[C@@H](C(=O)N3CC(C)(N(C)C)C3)C4)n[nH]c2c1 [Example 8-21] as the molecule, how does the IC50 ([1]; Homo sapiens) read?
A: 4 nM

Q: Which results are given for CCc1cc(O)c(F)cc1-c1ccc2c(-c3nc4c([nH]3)CN(CC)[C@H](C(=O)N3CC(N(C)C)C3)C4)n[nH]c2c1 [Example 8-22, (S)-(3-(dimethylamino)azetidin-1-yl)(5-ethyl-2-(6-(2-ethyl-5-fluoro-4-hydroxyphenyl)-1H-indazol-3-yl)-4,5,6,7-tetrahydro-3H-imidazo[4,5-c]pyridin-6-yl)methanone]?
A: Ki (JAK3): 0.32 nM; pSTAT6 inhibition Assay 4 [2]: B (B represents between 40% and 60% inhibition); IC50 ([1]; Homo sapiens): 5.25 nM

Q: For CCc1cc(O)c(F)cc1-c1ccc2c(-c3nc4c([nH]3)CN(CC)[C@H](C(=O)N3CC(C)(N(C)C)C3)C4)n[nH]c2c1 [Example 8-23, (S)-(3-(dimethylamino)-3-methylazetidin-1-yl)(5-ethyl-2-(6-(2-ethyl-5-fluoro-4-hydroxyphenyl)-1H-indazol-3-yl)-4,5,6,7-tetrahydro-3H-imidazo[4,5-c]pyridin-6-yl)methanone], which “pSTAT6 inhibition Assay 4” value [2] is on record?
A: B (B represents between 40% and 60% inhibition)

Q: And the IC50 ([1]; Homo sapiens)?
A: 7.7 nM
